Results from US20120328569A1, “INHIBITORS OF HEPATITIS C VIRUS NS5B POLYMERASE” (priority 2010, published 2012).

test system: HCV genotype 1b replicon; assay: HCV replicon assay, cell ELISA with antibody to replicon-encoded NS3/4A (genotype 1b replicon); assay type: cell-based, hepatitis C virus; conditions: Hepatitis C virus, 96 h, read-out: Replicon 1b IC50 (nM), HCV genotype 1b replicon cells, 96 hours incubation, NS3/4A ELISA readout
Outline: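 An ELISA on lysed cells, using an antibody against NS3/4A protease, served as the proxy for replicon RNA. Cells had first been exposed for 96 h to serially diluted compound in G418-free conditions. Percent of DMSO control was fitted with a four-parameter function to give IC50.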

Structure (SMILES) | IC50
CNC(=O)c1c(-c2ccc(F)cc2)oc2cc(N(C)S(C)(=O)=O)c(-c3ccc(Cl)c(-c4nc5cnccc5o4)c3)cc12 [Example 215] | 2.1 nM
CNC(=O)c1c(-c2ccc(F)cc2)oc2cc(N(C)S(C)(=O)=O)c(-c3cccc(-c4nc5ccncc5o4)c3)cc12 [Example 216] | 8.2 nM
CNC(=O)c1c(-c2ccc(F)cc2)oc2cc(N(C)S(C)(=O)=O)c(-c3cccc(-c4nc5cccnc5o4)c3)cc12 [Example 217] | 2.1 nM
CNC(=O)c1c(-c2ccc(F)cc2)oc2cc(N(C)S(C)(=O)=O)c(-c3cc(F)cc(-c4nc5cccnc5o4)c3)cc12 [Example 218] | 1.8 nM
CNC(=O)c1c(-c2ccc(F)cc2)oc2cc(N(C)S(C)(=O)=O)c(-c3cc(F)cc(-c4nc5cc(Cl)cnc5o4)c3)cc12 [Example 219] | 3 nM
CNC(=O)c1c(-c2ccc(F)cc2)oc2cc(N(C)S(C)(=O)=O)c(-c3cc(F)cc(-c4nc5cc(F)cnc5o4)c3)cc12 [Example 220] | 1.5 nM
CNC(=O)c1c(-c2ccc(F)cc2)oc2cc(N(C)S(C)(=O)=O)c(-c3ccc(F)c(-c4nc5cccnc5o4)c3)cc12 [Example 221] | 1.7 nM
CNC(=O)c1c(-c2ccc(F)cc2)oc2cc(N(C)S(C)(=O)=O)c(-c3cc(-c4nc5cccnc5o4)ccc3F)cc12 [Example 222] | 3.5 nM
CNC(=O)c1c(-c2ccc(F)cc2)oc2cc(N(C)S(C)(=O)=O)c(-c3cccc(-c4nc5cc(Cl)cnc5o4)c3)cc12 [Example 223] | 10 nM
CNC(=O)c1c(-c2ccc(F)cc2)oc2cc(N(C)S(C)(=O)=O)c(-c3cccc(-c4nc5cc(F)cnc5o4)c3)cc12 [Example 224] | 2.3 nM
CNC(=O)c1c(-c2ccc(F)cc2)oc2cc(N(C)S(C)(=O)=O)c(-c3ccc(OC)c(-c4nc5cccnc5o4)c3)cc12 [Example 225] | 3.6 nM
CNC(=O)c1c(-c2ccc(F)cc2)oc2cc(N(C)S(C)(=O)=O)c(-c3ccc(OC)c(-c4nc5cc(Cl)cnc5o4)c3)cc12 [Example 226] | 4 nM
CNC(=O)c1c(-c2ccc(F)cc2)oc2cc(N(C)S(C)(=O)=O)c(-c3ccc(OC)c(-c4nc5cc(F)cnc5o4)c3)cc12 [Example 227] | 2.2 nM
CNC(=O)c1c(-c2ccc(F)cc2)oc2cc(N(C)S(C)(=O)=O)c(-c3ccc(Cl)c(-c4nc5cccnc5o4)c3)cc12 [Example 228] | 3.2 nM
CNC(=O)c1c(-c2ccc(F)cc2)oc2cc(N(C)S(C)(=O)=O)c(-c3cc(Cl)cc(-c4nc5cccnc5o4)c3)cc12 [Example 229] | 3.7 nM
CNC(=O)c1c(-c2ccc(F)cc2)oc2cc(N(C)S(C)(=O)=O)c(-c3cc(-c4nc5cccnc5o4)ccc3Cl)cc12 [Example 230] | 8.3 nM
CNC(=O)c1c(-c2ccc(F)cc2)oc2cc(N(C)S(C)(=O)=O)c(-c3ccc(OC(F)(F)F)c(-c4nc5cccnc5o4)c3)cc12 [Example 231] | 6.6 nM
CNC(=O)c1c(-c2ccc(F)cc2)oc2cc(N(C)S(C)(=O)=O)c(-c3cc(F)c(OC)c(-c4nc5ncccc5o4)c3)cc12 [Example 232] | 2.4 nM
CNC(=O)c1c(-c2ccc(F)cc2)oc2cc(N(C)S(C)(=O)=O)c(-c3cc(F)c(OC)c(-c4nc5cccnc5o4)c3)cc12 [Example 233] | 2.9 nM

Structure (SMILES) | IC50
CNC(=O)c1c(-c2ccc(F)cc2)oc2cc(N(C)S(C)(=O)=O)c(-c3cc(OC)c(OC)c(-c4nc5ncccc5o4)c3)cc12 [Example 234] | 2.7 nM
CNC(=O)c1c(-c2ccc(F)cc2)oc2cc(N(C)S(C)(=O)=O)c(-c3cc(OC)c(OC)c(-c4nc5cccnc5o4)c3)cc12 [Example 235] | 4 nM
CNC(=O)c1c(-c2ccc(F)cc2)oc2cc(N(C)S(C)(=O)=O)c(-c3ccc(OCCO)c(-c4nc5ncccc5o4)c3)cc12 [Example 237] | 2.6 nM
CNC(=O)c1c(-c2ccc(F)cc2)oc2cc(N(C)S(C)(=O)=O)c(-c3ccc(OC)c(-c4nc5ncccc5o4)c3)cc12 [Example 238] | 2.9 nM
CNC(=O)c1c(-c2ccc(F)cc2)oc2cc(N(C)S(C)(=O)=O)c(-c3ccc(OC)c(-c4nc5ncc(Cl)cc5o4)c3)cc12 [Example 239] | 2.6 nM
CNC(=O)c1c(-c2ccc(F)cc2)oc2cc(N(C)S(C)(=O)=O)c(-c3cccc(-c4nc5nccnc5o4)c3)cc12 [Example 240] | 1.9 nM
CNC(=O)c1c(-c2ccc(F)cc2)oc2cc(N(C)S(C)(=O)=O)c(-c3cccc(-c4nc5ncncc5o4)c3)cc12 [Example 241] | 9.5 nM
CNC(=O)c1c(-c2ccc(F)cc2)oc2cc(N(C)S(C)(=O)=O)c(-c3cccc(-c4nc5cncnc5o4)c3)cc12 [Example 242] | 4.8 nM
CNC(=O)c1c(-c2ccc(F)cc2)oc2cc(N(C)S(C)(=O)=O)c(-c3cc(F)c(F)c(-c4nc5ncccc5o4)c3)cc12 [Example 243] | 1.3 nM
CNC(=O)c1c(-c2ccc(F)cc2)oc2cc(N(C)S(C)(=O)=O)c(-c3cc(F)c(F)c(-c4nc5cccnc5o4)c3)cc12 [Example 244] | 1.3 nM
CNC(=O)c1c(-c2ccc(F)cc2)oc2cc(N(C)S(C)(=O)=O)c(-c3cc(F)cc(-c4nc5cccnc5s4)c3)cc12 [Example 245] | 2 nM
CNC(=O)c1c(-c2ccc(F)cc2)oc2cc(N(C)S(C)(=O)=O)c(-c3ccc(F)c(-c4nc5cccnc5s4)c3)cc12 [Example 246] | 3.6 nM
CNC(=O)c1c(-c2ccc(F)cc2)oc2cc(N(C)S(C)(=O)=O)c(-c3cc(OC)cc(-c4nc5cccnc5s4)c3)cc12 [Example 249] | 2.2 nM
CNC(=O)c1c(-c2ccc(F)cc2)oc2cc(N(C)S(C)(=O)=O)c(-c3cc(-c4nc5cccnc5s4)ccc3OC)cc12 [Example 250] | 5.1 nM
CNC(=O)c1c(-c2ccc(F)cc2)oc2cc(N(C)S(C)(=O)=O)c(-c3cccc(-c4nc5ccc(OC)nc5s4)c3)cc12 [Example 251] | 4 nM
CNC(=O)c1c(-c2ccc(F)cc2)oc2cc(N(C)S(C)(=O)=O)c(-c3cccc(-c4nc5ccc(=O)[nH]c5s4)c3)cc12 [Example 252] | 78.2 nM
CNC(=O)c1c(-c2ccc(F)cc2)oc2cc(N(C)S(C)(=O)=O)c(-c3ccc(F)c(-c4nc5ncccc5s4)c3)cc12 [Example 260] | 3.7 nM
CNC(=O)c1c(-c2ccc(F)cc2)oc2cc(N(C)S(C)(=O)=O)c(-c3cccc(-c4nc5ncc(Cl)cc5s4)c3)cc12 [Example 261] | 2 nM
CNC(=O)c1c(-c2ccc(F)cc2)oc2cc(N(C)S(C)(=O)=O)c(-c3cccc(-c4nc5cnccc5s4)c3)cc12 [Example 262] | 5 nM

Structure (SMILES) | IC50
CNC(=O)c1c(-c2ccc(F)cc2)oc2cc(N(C)S(C)(=O)=O)c(-c3cccc(-c4nc5ccncc5s4)c3)cc12 [Example 264] | 2.9 nM
CNC(=O)c1c(-c2ccc(F)cc2)oc2cc(N(C)S(C)(=O)=O)c(-c3ccc(OC)c(-c4nc5cccnc5s4)c3)cc12 [Example 271] | 1.5 nM
CNC(=O)c1c(-c2ccc(F)cc2)oc2cc(N(C)S(C)(=O)=O)c(-c3cccc(-c4nc5nccnc5s4)c3)cc12 [Example 272] | 3 nM
CNC(=O)c1c(-c2ccc(F)cc2)oc2cc(N(C)S(C)(=O)=O)c(-c3cccc(-c4nc5cncnc5s4)c3)cc12 [Example 273] | 2.2 nM
CNC(=O)c1c(-c2ccc(F)cc2)oc2cc(N(C)S(C)(=O)=O)c(-c3cccc(-c4nc5c(F)cccc5s4)c3)cc12 [Example 278] | 3.2 nM
CNC(=O)c1c(-c2ccc(F)cc2)oc2cc(N(C)S(C)(=O)=O)c(-c3cccc(-c4nc5cccc(F)c5s4)c3)cc12 [Example 279] | 3.2 nM
CNC(=O)c1c(-c2ccc(F)cc2)oc2cc(N(C)S(C)(=O)=O)c(-c3cccc(-c4nc5ccc(NS(C)(=O)=O)cc5o4)c3)cc12 [Example 281, 2-(4-fluorophenyl)-N-methyl-6-(N-methylmethylsulfonamido)-5-(3-(6-(methylsulfonamido)benzo[d]oxazol-2-yl)phenyl)benzofuran-3-carboxamide] | 3.3 nM
CNC(=O)c1c(-c2ccc(F)cc2)oc2cc(N(C)S(C)(=O)=O)c(-c3cccc(-c4nc5ccc(NC(C)=O)cc5o4)c3)cc12 [Example 282] | 2.3 nM
CNC(=O)c1c(-c2ccc(F)cc2)oc2cc(N(C)S(C)(=O)=O)c(-c3cccc(-c4nc5ccc(NC(=O)c6ccccc6)cc5o4)c3)cc12 [Example 283] | 17.2 nM
CNC(=O)c1c(-c2ccc(F)cc2)oc2cc(N(C)S(C)(=O)=O)c(-c3cccc(-c4nc5ccc(NS(=O)(=O)c6ccccc6)cc5o4)c3)cc12 [Example 284] | 5.3 nM
CNC(=O)c1c(-c2ccc(F)cc2)oc2cc(N(C)S(C)(=O)=O)c(-c3cccc(-c4nc5ccc(NC(=O)[C@@H]6CCCN6C(=O)OC(C)(C)C)cc5o4)c3)cc12 [Example 285] | 10.2 nM
CNC(=O)c1c(-c2ccc(F)cc2)oc2cc(N(C)S(C)(=O)=O)c(-c3cccc(-c4nc5cc(NS(=O)(=O)c6ccccc6)ccc5o4)c3)cc12 [Example 286] | 5.8 nM
CNC(=O)c1c(-c2ccc(F)cc2)oc2cc(N(C)S(C)(=O)=O)c(-c3cc(F)cc(-c4nc5ccccc5s4)c3)cc12 [Example 289] | 5.4 nM
CNC(=O)c1c(-c2ccc(F)cc2)oc2cc(N(C)S(C)(=O)=O)c(-c3cc(-c4nc5ccccc5s4)ccc3F)cc12 [Example 290] | 6.9 nM
CNC(=O)c1c(-c2ccc(F)cc2)oc2cc(N(C)S(C)(=O)=O)c(-c3cccc(-c4nc5cc(F)ccc5s4)c3)cc12 [Example 292] | 5.9 nM
CNC(=O)c1c(-c2ccc(F)cc2)oc2cc(N(C)S(C)(=O)=O)c(-c3ccc(F)c(-c4nc5ccc(F)cc5s4)c3)cc12 [Example 293] | 8.6 nM
CNC(=O)c1c(-c2ccc(F)cc2)oc2cc(N(C)S(C)(=O)=O)c(-c3ccc(F)c(-c4nc5ccc(C)cc5s4)c3)cc12 [Example 294] | 10 nM
CNC(=O)c1c(-c2ccc(F)cc2)oc2cc(N(C)S(C)(=O)=O)c(-c3cccc(-c4nc5cccc(C#N)c5s4)c3)cc12 [Example 295] | 4.1 nM
CNC(=O)c1c(-c2ccc(F)cc2)oc2cc(N(C)S(C)(=O)=O)c(-c3ccc(F)c(-c4nc5ccccc5s4)c3F)cc12 [Example 296] | 64.1 nM
